This note sets out measurements from patent publication EP0585206B1, “Tryptamines for treatment of circadian rhythm disorders” (I.F.L.O. S.a.s. di Giorgio e Aldo Laguzzi, priority 1992, dated 1994).

Experiment [1] deals with N-acetyl-5-methoxytryptamine receptors. Briefly: biological activity by classical tests (agonist/antagonist character). The protocol: (§1) All the substances were evaluted for their relative affinity and were tested for biological activity by using classical tests.
Experiment [2] addresses N-acetyl-5-methoxytryptamine receptors. The experiment in a line: relative affinity for the specific N-acetyl-5-methoxytryptamine receptors. Format: binding. Conditions: association constant; SE printed in a separate column. The protocol:
as §1

In the case of `COc1ccc2[nH]c(I)c(CCNC(C)=O)c2c1` [Compound 4k], in experiment [1], the Activity entry is reported as “Agonist”.

Turning to `COc1ccc2[nH]cc(CCNC(C)=O)c2c1` [Melatonin, N-Acetyl-5-methoxytryptamine, reference compound], in experiment [1], the Activity entry is on record as “Agonist”. In the case of `COc1cc2c(CCNC(C)=O)c(Br)[nH]c2cc1Br` [Compound 4l], the Activity entry in experiment [1] was “Agonist”.

Regarding `COc1ccc2[nH]c(Br)c(CCNC(=O)C3CC3)c2c1` [Compound 4h], the Activity result in experiment [1] is on record as “Agonsit”. As to `COc1ccc2[nH]c(C3CCCCC3)c(CCNC(C)=O)c2c1` [Compound 4c], in experiment [1], the Activity result is “Partial antagonist”. `COc1ccc2[nH]c(-c3ccccc3)c(CCNC(=O)C3CC3)c2c1` [Compound 4g]: the Activity entry in experiment [1] was “Partial antagonist”. Further, the “Ka ± SE” value in experiment [2] was determined as 4.1e+09 L/mol. For `COc1ccc2[nH]c(-c3ccccc3)c(CCNC(C)=O)c2c1` [Compound 4d], the Activity result in experiment [1] is reported as “Antagonist”. The same measure, in the same setting: as for `COc1ccc2[nH]c(Br)c(CCNC(C)=O)c2c1` [Compound 4j, N-acetyl-2-bromo-5-methoxy tryptamine], the entry is “Agonist”; as for `COc1ccc2[nH]c(C)c(CCNC(=O)C3CC3)c2c1` [Compound 4e], “Agonist”. As for `COc1ccc2[nH]c(C)c(CCNC(C)=O)c2c1` [Compound 4a], the Activity result in experiment [1] is given as “Agonist”. For the molecule `COc1ccc2[nH]c(I)c(CCNC(=O)C3CC3)c2c1` [Compound 4i], the Activity entry in experiment [1] was “Agonist”.
